Measurements published in patent US20050181385A1, “Synthetic lethal screen using RNA interference” (priority 2003, published 2005).
Where “and” joins values, the source holds several entries; their conditions need not be identical. Equal entries are not always repeated.

Assays:
Assay type in all cases: cell-based, human
TP53 mRNA [1] = experiment: TP53 knockdown by TaqMan, pRS-p53 shRNA in HCT116 cells
Excerpt: In another specific embodiment, the invention provides a method for determining synthetic lethality between p53 and CHEK1. Stable clones having p53 gene silenced was generated. The pRS-TP53 1026 shRNA plasmid was deconvoluted from a library plasmid pool for TP53 by transforming bacteria with the pool and looking for clones containing only the plasmid of interest. The sequences used are as follows: pRS-p53 1026 19mer sequence: […] (SEQ ID NO:43); primers for sequence specific PCR: Forward: […] (SEQ ID NO:44), Reverse: […] (SEQ ID NO:45). Plasmids were identified by sequence specific PCR, and confirmed by sequencing. Stable p53-clones were generated by transfecting HCT116 cells using FuGENE 6 (Roche) with the pRS-TP53 1026 plasmid. Cells were split into 10 cm dishes plus 1 ug/ml puromycin 48 hours later, and maintained until colonies were evident (5-7 days). Clones were picked into a 96 well plate, maintained in 1 ug/ml puromycin, and tested for knockdown by TaqMan using the TP53 and hGUS Pre-Developed Assay Reagent (Applied Biosystems). To measure transient knockdown by the pRS-TP53 1026 plasmid, HCT116 cells were transfected using Lipofectamine 2000 (Invitrogen), and RNA harvested 24 hours later. TP53 transcript levels were assessed by TaqMan. […]

TP53 mRNA [2] = experiment: TP53 mRNA silencing in A549 cells stably transfected with pRS-p53; settings: stable A549 pRS-p53 cells versus pRS cells
Description: (§1) Next, supertransfection of the CHEK1 siRNA pool into cells stably expressing TP53 shRNAs was evaluated to determine if it could be used to investigate genetic interactions (SL) between these molecules. Matched cell lines +/−TP53 expression were generated by selecting stable clones of A549 lung cancer cell lines containing either empty pRS vector or pRS-p53. […] Both cell lines were then supertransfected with either control luciferase siRNA (luc, 100 nM) or the CHEK1 siRNA pool (100 nM total; 33 nM each of 3 siRNAs) and their cell cycle profiles examined with or without exposure to the DNA damaging agent, doxorubicin (Dox, FIG. 5). Cell cycle profiles of pRS-p53 cells were not appreciably different from those of pRS cells in the absence of Dox.
as §1, with “molecules. […]” for “molecules.”, “Cell cycle profiles of pRS-p53 cells were not appreciably different from those of pRS cells in the absence of Dox.” left out

CHEK1 and TP53 mRNA = experiment: Competition between stable TP53 shRNA and CHEK1 siRNA pool, TaqMan (FIG. 4A); settings: HCT116 clone A11, siRNA pool 100 nM, 24 hours
Description: A pool of three siRNAs targeting CHEK1 was transiently transfected into WT and pRS-p53 stably transfected HCT116 cells (clone A11). CHEK1 and TP53 mRNA levels were measured by Taqman analysis (left and right panels, respectively). […] STK6 and KNSL1 siRNAs were transiently co-transfected into WT SW480 cells and KNSL1 siRNAs were supertransfected into pRS-STK6 stably transfected SW480 cells. STK6 mRNA levels were measured by Taqman analysis. For the left set of bars, STK6 siRNA (10 nM) was used alone or together with one of three different individual KNSL1 siRNAs (10 nM each). […]
To test whether TP53 silencing in HCT116 clone A11 was subject to competition with siRNAs, cells of this clone were supertransfected with a pool of CHEK1-specific siRNAs. […] RNA was harvested 24 hours post transfection and knockdown was assessed by TaqMan analysis using the CHK1 or TP53 and hGUS Pre-Developed Assay Reagent (Applied Biosystems). […] This is in contrast to the observation that two different siRNAs targeting distinct mRNAs compete with each other when transfected together, effectively decreasing the efficacy of one or both of the siRNAs used. pRS and pRS-p53 HCT116 cells were transiently transfected with siRNA pools for ˜800 genes (see Example 3, infra) and measured effects on cellular growth by Alamar Blue assay. […]

HeLa cells = experiment: siRNA library screen for sensitization to Cisplatin (Alamar Blue growth)
Description: The primary screen with each agent was performed in HeLa cells, which are TP53 deficient. HeLa cells were transfected with siRNA pools, and the drugs were added 4 hrs later. […] The growth of cells +/−drug was assessed at 72 hrs post-transfection.
siRNA transfection was carried out as follows: one day prior to transfection, 50 microliters of a chosen cell line, e.g., cervical cancer HeLa cells (ATCC, Cat. No. CCL-2), grown in DMEM/10% fetal bovine serum (Invitrogen, Carlsbad, Calif.) to approximately 90% confluency were seeded in a 384-well tissue culture plate at 450 cells/well. For each transfection 20 microliters of OptiMEM (Invitrogen) was mixed with 2 microliter of siRNA (Dharmacon, Lafayette, Colo.) from a 10 micromolar stock. For each transfection, a ratio of 20 microliter of OptiMEM was mixed with 1 microliter of Oligofectamine reagent (Invitrogen) and incubated 5 minutes at room temperature. Then 20-microliter OptiMEM/Oligofectamine mixture was dispensed into each well of the 96 well plate with the OptiMEM/siRNA mixture, mixed and incubated 15-20 minutes at room temperature.
The internal environment of the proliferating cell is more reduced than that of non-proliferating cells.

TP53-negative A549 cells = experiment: Alamar Blue cell growth, cisplatin after siRNA supertransfection, TP53-negative cells (FIG. 20)
Description: A549 cells stably transfected with empty vector (pRS, left panel) or an shRNA targeting TP53 (pRS-TP53, right panel) were supertransfected with siRNAs to luciferase, BRCA1, or BRCA2 prior to treatment with the DNA damaging agent, cisplatin. Cell growth was measured 72 hrs post-transfection using Alamar Blue.
The cell lines used in this example were HeLa cells, TP53-positive A549 cells and TP53-negative A549 cells. The matched pair of TP53 positive and negative cells were generated by stable transfection of short hairpin RNAs (shRNAs) targeting TP53 (monthly highlt highlight, November 2003). […]
After 4 hours, 100 microliter/well of DMEM/10% fetal bovine serum with or without DNA damage agents was added to each well to reach the final concentration of each agents as described above. […] Samples from the 6-well plates were analyzed for cell cycle profiles and samples from 96-well plates were analyzed for cell growth with Alamar Blue assay.
For Alamar Blue assay, the media from the 96-well plates was removed, and 100 uL/well complete media containing 10% (vol/vol) alamarBlue reagent (BioSource International, Inc) and 1/100th volume 1M Hepes buffer tissue culture reagent was added. The plates were then incubated 1-4 hours at 37° C. and fluorescence was measured by exciting at 544 nm and detecting emission at 590 nm with […]ax Gemini-Xs Spectrofluorometer (Molceular Devices). […]

[3] = cisplatin, HeLa cell growth, 72 hrs

GACTCCAGTGGTAATCTAC [pRS-p53]
TP53 mRNA silencing (TP53 mRNA [1]; stable clones A5 and A11): > 95% | TP53 mRNA silencing (TP53 mRNA [1]; transient transfection, 24 hr post transfection): ~80% | TP53 mRNA silencing (TP53 mRNA [2]): > 90% and ~90% | competitive inhibition of silencing between TP53 shRNA and CHEK1 siRNA pool (CHEK1 and TP53 mRNA): does not affect

N.N.[Cl][Pt][Cl] [cisplatin, cis-Diaminedichloroplatinum]
EC25 (HeLa cells; 400 ng/ml stated to be an <EC25 concentration): > 400 ng/mL | EC10 (HeLa cells; [3]): ~100 ng/mL | EC50 (HeLa cells; [3]): ~400 ng/mL | IC50 (TP53-negative A549 cells; cells transfected with BRCA1 or BRCA2 siRNAs): ~0.1 nM | IC50 (TP53-negative A549 cells; cells transfected with control siRNA (luciferase)): ~1 nM
